Experiments:
[1] = biological target: cap-dependent endonuclease (RNP fraction containing PB1•PB2•PA complex) (Influenza A virus, UniProt P15659); assay: biochemical; conditions: RNP from A/WSN/33 virus, capped Cy3/BHQ2 30mer RNA substrate, 60 minutes at room temperature; read-out: CEN IC50
influenza virus = assay: microbe, parasite or virus in culture; format: cell-based, influenza virus (MDBK or MDCK cells); conditions: unidentified influenza virus, 72 h, read-out: CPE EC50, effective concentration to achieve 50% CPE inhibition, 3 days incubation, WST-8

| SMILES | IC50 [1] [nM] | EC50 (influenza virus) [nM] |
| --- | --- | --- |
| COCCN1C[C@H](C(c2ccccc2)c2ccccc2)n2cc(C(=O)O)c(=O)c(O)c2C1=O [Example 2] | 48 | 293 |
| CCN1C[C@H](C(c2ccccc2)c2ccccc2)n2cc(C(=O)O)c(=O)c(O)c2C1=O [Example 14] | 43 | 313 |
| O=C(O)c1cn2c(c(O)c1=O)C(=O)N(CC1CCCCO1)C[C@@H]2C(c1ccccc1)c1ccccc1 (stereo partly shown) [Example 26] | 108 | 547 |
| O=C1c2c(O)c(=O)ccn2[C@@H](C(c2ccccc2)c2ccccc2)CN1Cc1ccccc1 [Example 37] | 101 | 318 |
| O=C1c2c(O)c(=O)ccn2N(C2c3ccccc3CCc3ccccc32)CN1C1CC1 [Example 108] | 37 | 19 |
| CN(CCN1CN(C(c2ccccc2)c2ccccc2)n2ccc(=O)c(O)c2C1=O)S(C)(=O)=O [Example 139] | 189 | 741 |
| O=C1c2c(O)c(=O)ccn2N(C(c2ccccc2)c2ccccc2)CN1CCNS(=O)(=O)c1ccccc1 [Example 143] | 224 | 333 |
| O=C1c2c(O)c(=O)ccn2C(C(c2ccccc2)c2ccccc2)N2CCCCN12 (stereo not shown) [Example 178] | 61 | 75 |
| O=C(O)c1cn2c(c(O)c1=O)C(=O)N(CCOc1ccc(F)cc1)C[C@@H]2C(c1ccccc1)c1ccccc1 [Example 183] | 74 | 2370 |
| O=C(O)c1cn2c(c(O)c1=O)C(=O)N(CC(F)(F)F)C[C@@H]2C(c1ccccc1)c1ccccc1 [Example 185] | 132 | 1920 |
| O=C1c2c(O)c(=O)ccn2N(Cc2csc3ccc(Cl)cc23)CN1Cc1ccc(F)cc1 [Example 191] | 238 | 2820 |
| CC(C)N1CN(Cc2cccc3ccsc23)n2ccc(=O)c(O)c2C1=O [Example 204] | 299 | 2360 |
| O=C1c2c(O)c(=O)ccn2N(C(c2ccccc2)c2ccccc2)CN1C1CCOC1 (stereo not shown) [Example 224] | 276 | 119 |
| CN1CCC(N2CN(C(c3ccccc3)c3ccccc3)n3ccc(=O)c(O)c3C2=O)CC1 [Example 225] | 283 | 663 |
| CCC(COC)N1CN(C(c2ccccc2)c2ccccc2)n2ccc(=O)c(O)c2C1=O (stereo not shown) [Example 228] | 243 | 141 |
| CCOC(=O)CC(C)N1CN(C(c2ccccc2)c2ccccc2)n2ccc(=O)c(O)c2C1=O (stereo not shown) [Example 230] | 282 | 525 |
| CNC(=O)C(C)N1CN(C(c2ccccc2)c2ccccc2)n2ccc(=O)c(O)c2C1=O (stereo not shown) [Example 233] | 228 | 2240 |
| CC(CC(=O)Nc1ccccc1)N1CN(C(c2ccccc2)c2ccccc2)n2ccc(=O)c(O)c2C1=O (stereo not shown) [Example 238] | 101 | 440 |
| CC(C)N1CN(C(c2ccccc2Cl)c2ccccc2Cl)n2ccc(=O)c(O)c2C1=O [Example 240] | 37 | 48 |
| CC(N1CN(C(c2ccccc2)c2cccc(Cl)c2)n2ccc(=O)c(O)c2C1=O)C(F)(F)F (stereo not shown) [Example 241] | 197 | 63 |
| CC(C)N1CN(C(c2cccs2)c2cccs2)n2ccc(=O)c(O)c2C1=O [Example 244] | 249 | 108 |
| CC(C)N1CN(C2c3ccc(Cl)cc3CCc3cc(Cl)ccc32)n2ccc(=O)c(O)c2C1=O [Example 246] | 82 | 26 |

| SMILES | IC50 [1] [nM] | EC50 (influenza virus) [nM] |
| --- | --- | --- |
| CN1CC[C@H](N2CN(C3c4ccccc4CCc4ccccc43)n3ccc(=O)c(O)c3C2=O)C1 [Example 247] | 282 | 2260 |
| CC(C)CN1CC(N2CN(C3c4ccccc4CCc4ccccc43)n3ccc(=O)c(O)c3C2=O)C1 [Example 248] | 103 | 489 |
| CC(C)N1CC(N2CN(C3c4ccccc4CCc4ccccc43)n3ccc(=O)c(O)c3C2=O)C1 [Example 249] | 151 | 1890 |
| CN1CC[C@@H](N2CN(C3c4ccccc4CCc4ccccc43)n3ccc(=O)c(O)c3C2=O)C1 [Example 250] | 113 | 476 |
| CS(=O)(=O)N1CC[C@@H](N2CN(C3c4ccccc4CCc4ccccc43)n3ccc(=O)c(O)c3C2=O)C1 [Example 251] | 58 | 157 |
| CC(C)N1CC[C@@H](N2CN(C3c4ccccc4CCc4ccccc43)n3ccc(=O)c(O)c3C2=O)C1 [Example 252] | 107 | 454 |
| CN1CCC(N2CN(C3c4ccccc4CCc4ccccc43)n3ccc(=O)c(O)c3C2=O)CC1 [Example 253] | 235 | 280 |
| O=C1c2c(O)c(=O)ccn2N(C2c3ccccc3CCc3ccccc32)CN1[C@@H]1CCN(CCO)C1 [Example 254] | 135 | 564 |
| Cc1cc(CN2CN(C3c4ccccc4CCc4ccccc43)n3ccc(=O)c(O)c3C2=O)no1 [Example 255] | 52 | 319 |
| O=C1c2c(O)c(=O)ccn2N(C2c3ccccc3CCc3ccccc32)CN1CCCF [Example 257] | 41 | 55 |
| O=C1c2c(O)c(=O)ccn2N(C2c3ccccc3CCc3ccccc32)CN1CC(F)F [Example 259] | 66 | 26 |
| CCC(COC)N1CN(C2c3ccccc3CCc3ccccc32)n2ccc(=O)c(O)c2C1=O (stereo not shown) [Example 260] | 91 | 65 |
| O=C1c2c(O)c(=O)ccn2N(C2c3ccccc3CCc3ccccc32)CN1Cc1ccccn1 [Example 264] | 64 | 128 |
| CCN1CN(C2c3ccccc3CCc3ccccc32)n2ccc(=O)c(O)c2C1=O [Example 266] | 43 | 85 |
| CCOCCN1CN(C2c3ccccc3CCc3ccccc32)n2ccc(=O)c(O)c2C1=O [Example 268] | 18 | 74 |
| O=C1c2c(O)c(=O)ccn2N(C2c3ccccc3CCc3ccccc32)CN1Cc1nccs1 [Example 271] | 73 | 102 |
| CN1CN(C2c3ccccc3CCc3ccccc32)n2ccc(=O)c(O)c2C1=O [Example 273] | 16 | 84 |
| O=C1c2c(O)c(=O)ccn2N(C2c3ccccc3CCc3ccccc32)CN1CCOC(F)(F)F [Example 277] | 39 | 71 |
| COc1ccc2c(c1)CCc1ccccc1C2N1CN(C(C)C)C(=O)c2c(O)c(=O)ccn21 (stereo not shown) [Example 278] | 205 | 74 |
| CC(C)N1CN(C2c3cc(Cl)ccc3CCc3ccc(Cl)cc32)n2ccc(=O)c(O)c2C1=O [Example 280] | 68 | 145 |
| CC(C)N1CN(C2c3cccc(F)c3CCc3c(F)cccc32)n2ccc(=O)c(O)c2C1=O [Example 281] | 26 | 18 |
| CC(C)N1CN(C2c3ccccc3CCc3cc(Cl)ccc32)n2ccc(=O)c(O)c2C1=O (stereo not shown) [Example 283] | 28 | 21 |

| SMILES | IC50 [1] [nM] | EC50 (influenza virus) [nM] |
| --- | --- | --- |
| CC(C)N1CN(C2c3cc(F)ccc3SCc3c(Cl)cccc32)n2ccc(=O)c(O)c2C1=O (stereo not shown) [Example 285] | 44 | 17 |
| O=C1c2c(O)c(=O)ccn2N(C2c3ccccc3CSc3ccccc32)CN1[C@@H]1CCN(CCOCc2ccccc2)C1 (stereo partly shown) [Example 286] | 161 | 121 |
| CN1CC[C@@H](N2CN(C3c4ccccc4CSc4ccccc43)n3ccc(=O)c(O)c3C2=O)C1 (stereo partly shown) [Example 287] | 154 | 268 |
| CN1CCC(N2CN(C3c4ccccc4CSc4ccccc43)n3ccc(=O)c(O)c3C2=O)CC1 (stereo not shown) [Example 288] | 299 | 85 |
| O=C1c2c(O)c(=O)ccn2N(C2c3ccccc3CSc3ccccc32)CN1[C@@H]1CCN(CCO)C1 (stereo partly shown) [Example 290] | 67 | 492 |
| CN1CCCC(N2CN(C3c4ccccc4CSc4ccccc43)n3ccc(=O)c(O)c3C2=O)C1 (stereo not shown) [Example 293] | 290 | 437 |
| O=C1c2c(O)c(=O)ccn2N(C2c3ccccc3CSc3ccccc32)CN1CC(F)F (stereo not shown) [Example 294] | 35 | 18 |
| Cc1nnc(CN2CN(C3c4ccccc4CSc4ccccc43)n3ccc(=O)c(O)c3C2=O)o1 (stereo not shown) [Example 295] | 52 | 334 |
| COc1ccc(N2CN(C3c4ccccc4CSc4ccccc43)n3ccc(=O)c(O)c3C2=O)cc1 (stereo not shown) [Example 296] | 130 | 397 |
| COCCN1CN(C2c3ccccc3CSc3ccccc32)n2ccc(=O)c(O)c2C1=O (stereo not shown) [Example 299] | 50 | 15 |
| COCC(C)N1CN(C2c3ccccc3CSc3ccccc32)n2ccc(=O)c(O)c2C1=O (stereo not shown) [Example 300] | 58 | 21 |
| O=C1c2c(O)c(=O)ccn2N(C2c3ccccc3CSc3ccccc32)CN1C1CC1 (stereo not shown) [Example 302] | 35 | 14 |
| O=C1c2c(O)c(=O)ccn2N(C2c3ccccc3CSc3ccccc32)CN1CCF (stereo not shown) [Example 304] | 18 | 15 |
| Cc1cc(CN2CN(C3c4ccccc4CSc4ccccc43)n3ccc(=O)c(O)c3C2=O)no1 (stereo not shown) [Example 305] | 59 | 103 |
| O=C1c2c(O)c(=O)ccn2N(C2c3ccccc3CSc3ccccc32)CN1Cc1ccccn1 (stereo not shown) [Example 307] | 52 | 95 |
| CC(C)(C)N1CN(C2c3ccccc3CSc3ccccc32)n2ccc(=O)c(O)c2C1=O (stereo not shown) [Example 308] | 72 | 19 |
| CCN1CN(C2c3ccccc3CSc3ccccc32)n2ccc(=O)c(O)c2C1=O (stereo not shown) [Example 309] | 40 | 13 |
| CS(=O)(=O)CCN1CN(C2c3ccccc3CSc3ccccc32)n2ccc(=O)c(O)c2C1=O (stereo not shown) [Example 310] | 108 | 522 |
| COCCCN1CN(C2c3ccccc3CSc3ccccc32)n2ccc(=O)c(O)c2C1=O (stereo not shown) [Example 311] | 40 | 26 |
| CC(C)C1N(CCO)C(=O)c2c(O)c(=O)ccn2N1C1c2ccccc2CCc2ccccc21 (stereo not shown) [Example 553] | 28 | – |

— patent US9815835B2, “Substituted polycyclic carbamolypyridone derivative” (priority 2009, dated 2017)
